Results as given in patent US20190031618A1, “BENZIMIDAZOLE DERIVATIVES USEFUL AS CB-1 INVERSE AGONISTS” (Janssen Pharmaceutica NV, priority 2015, published 2019).

How the values were obtained:
[1] = target: Human CB2R (Cannabinoid receptor 2) (Homo sapiens, UniProt P34972); test: CB-2 in vitro cAMP (HTRF) assay; assay type: cell-based; conditions: HEK cells, cAMP HTRF, 250 nM forskolin; mean where tested more than once; read-out: CB2 HEK_cAMP EC50
In short: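 HEK-293 cells stably expressing receptor, plated overnight at 4E5 cells/mL, tested with 1/3 serial dilutions of compound in HBSS/HEPES/BSA buffer with 0.5 mM IBMX and forskolin (diluted to 1.5 μM in buffer). cAMP measured by competitive HTRF immunoassay (d2-cAMP, cryptate anti-cAMP), signal inversely proportional to cAMP.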

[2] = target: Human CB1R (Cannabinoid receptor 1) (Homo sapiens, UniProt P21554); test: CB-1 in vitro cAMP (HTRF) assay; assay type: cell-based; conditions: HEK cells, cAMP HTRF, 250 nM forskolin; mean where tested more than once; read-out: CB1 HEK_cAMP EC50
In short: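 Intracellular cAMP from HTRF ratio (d2-cAMP vs Eu-cryptate anti-cAMP), converted to nM via per-plate standards, in stable human CB1R HEK-293 cells.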

Chain of Human CB1R (Cannabinoid receptor 1) (P21554 whole entry): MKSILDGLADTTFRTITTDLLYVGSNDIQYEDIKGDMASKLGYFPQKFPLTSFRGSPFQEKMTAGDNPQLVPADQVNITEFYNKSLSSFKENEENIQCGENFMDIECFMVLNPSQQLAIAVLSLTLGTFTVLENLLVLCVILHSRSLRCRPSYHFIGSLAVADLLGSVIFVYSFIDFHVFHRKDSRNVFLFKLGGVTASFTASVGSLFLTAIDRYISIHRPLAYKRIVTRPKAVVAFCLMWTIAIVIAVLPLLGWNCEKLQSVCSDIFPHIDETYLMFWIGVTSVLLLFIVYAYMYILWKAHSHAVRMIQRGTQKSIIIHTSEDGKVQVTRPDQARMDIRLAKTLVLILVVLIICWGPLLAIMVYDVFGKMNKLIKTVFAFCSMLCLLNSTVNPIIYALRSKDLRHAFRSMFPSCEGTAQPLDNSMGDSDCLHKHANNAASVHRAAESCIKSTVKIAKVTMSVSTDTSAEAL
Chain of Human CB2R (Cannabinoid receptor 2) (P34972 whole entry): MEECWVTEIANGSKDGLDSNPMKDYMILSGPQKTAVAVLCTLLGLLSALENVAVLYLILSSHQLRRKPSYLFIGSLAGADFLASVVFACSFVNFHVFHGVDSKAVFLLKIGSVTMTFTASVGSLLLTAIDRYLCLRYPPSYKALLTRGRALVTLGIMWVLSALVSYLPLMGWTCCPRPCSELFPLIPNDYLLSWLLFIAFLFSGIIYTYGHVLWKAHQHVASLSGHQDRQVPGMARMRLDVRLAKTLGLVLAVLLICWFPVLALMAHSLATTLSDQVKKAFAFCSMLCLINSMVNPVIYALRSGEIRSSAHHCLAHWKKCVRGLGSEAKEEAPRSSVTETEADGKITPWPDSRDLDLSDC

Compound: Cc1cc(S(=O)(=O)N2CCC(n3c(C4CC4)nc4ccc(C(c5ccc(Cl)cc5)c5ccc(Cl)cc5)cc43)CC2)ccc1C(=O)O [Example 207]
- EC50 [1]: 4660 nM
- EC50 [2]: 6.4 nM

Compound: NS(=O)(=O)c1cccc(C(=O)N2CCC(n3c(C4CC4)nc4ccc(C(c5ccc(Cl)cc5)c5ccc(Cl)cc5)cc43)CC2)c1 [Example 229]
- EC50 [1]: 1780 nM
- EC50 [2]: 13.7 nM

Compound: O=C(O)C(c1ccc(Cl)cc1)(c1ccc(Cl)cc1)c1ccc2nc(C3CC3)n(CC3CCN(S(=O)(=O)C(F)(F)F)CC3)c2c1 [Example 12]
- EC50 [1]: > 10000 nM
- EC50 [2]: > 10000 nM

Compound: O=C(O)c1ccc(OCCn2c(C3CC3)nc3ccc(C(c4ccc(Cl)cc4)c4ccc(Cl)cc4)cc32)cc1 [Example 35]
- EC50 [1]: 4360 nM
- EC50 [2]: 3340 nM

Compound: NC(=O)c1cc(S(=O)(=O)N2CCC(n3c(C4CC4)nc4ccc(C(c5ccc(Cl)cc5)c5ccc(Cl)cc5)cc43)CC2)ccc1F [Example 217]
- EC50 [1]: > 10000 nM
- EC50 [2]: 9.2 nM

Compound: O=C(O)c1ccc(S(=O)(=O)N2CCC(Cn3c(C4CC4)nc4ccc(C(c5ccc(Cl)cc5)c5ccc(Cl)cc5)cc43)CC2)cc1 [Example 15]
- EC50 [1]: 700 nM
- EC50 [2]: 73 nM

Compound: NS(=O)(=O)N1CCC(n2c(C3CC3)nc3ccc(C(c4ccc(Cl)cc4)c4ccc(Cl)cc4)cc32)CC1 [Example 274]
- EC50 [1]: > 10000 nM
- EC50 [2]: 133 nM

Compound: NC(=O)c1ccc(C(=O)N2CCC(n3c(C4CC4)nc4ccc(C(c5ccc(Cl)cc5)c5ccc(Cl)cc5)cc43)CC2)cn1 [Example 223]
- EC50 [1]: 3340 nM
- EC50 [2]: 24.8 nM

Compound: Clc1ccc(C(c2ccc3nc(C4CC4)n(CCc4cccc(Cl)c4)c3c2)c2nccs2)cc1 (stereo not shown) [Example 423]
- EC50 [1]: > 10000 nM
- EC50 [2]: 17 nM

Compound: O=C(O)c1cccc(-c2ccc(CCn3c(C4CC4)nc4ccc(C(c5ccc(Cl)cc5)c5ccc(Cl)cc5)cc43)cc2)c1 [Example 24]
- EC50 [1]: 7300 nM
- EC50 [2]: 1940 nM

Compound: CCc1nc2ccc(C(c3ccc(Cl)cc3)c3ccc(Cl)cc3)cc2n1CCc1cccc(Cl)c1 [Example 311]
- EC50 [1]: 8600 nM
- EC50 [2]: 17.2 nM

Compound: O=C(c1nc[nH]n1)N1CCC(n2c(C3CC3)nc3ccc(C(c4ccccc4)c4ccccc4)cc32)CC1 [Example 200]
- EC50 [1]: 6310 nM
- EC50 [2]: 4720 nM

Compound: NC(=O)c1csc(S(=O)(=O)N2CCC(n3c(C4CC4)nc4ccc(C(c5ccc(Cl)cc5)c5ccc(Cl)cc5)cc43)CC2)c1 [Example 216]
- EC50 [1]: > 10000 nM
- EC50 [2]: 6.2 nM

Compound: CCOC(=O)N1CCC(n2c(N(C)C)nc3ccc(C(c4ccc(Cl)cc4)c4nccs4)cc32)CC1 (stereo not shown) [Example 439]
- EC50 [1]: > 10000 nM
- EC50 [2]: > 10000 nM

Compound: COC(=O)CN1CCC(n2c(C3CC3)nc3ccc(C(c4ccc(Cl)cc4)c4ccc(Cl)cc4)cc32)CC1 [Example 64]
- EC50 [1]: 2350 nM
- EC50 [2]: 2.6 nM

Compound: O=C(OC[C@@H](O)[C@H](O)CO)N1CCC(n2c(C3CC3)nc3ccc(C(c4ccc(Cl)cc4)c4ccc(Cl)cc4)cc32)CC1 [Example 102]
- EC50 [1]: 8140 nM
- EC50 [2]: 33.3 nM

Compound: O=S(=O)(c1ccccc1)N1CCC(n2c(C3CC3)nc3ccc(C(c4ccc(Cl)cc4)c4ccc(Cl)cc4)cc32)CC1 [Example 283]
- EC50 [1]: 960 nM
- EC50 [2]: 3.6 nM

Compound: CC(C)(C)c1nc2ccc(C(O)(c3ccc(Cl)cc3)c3ccc(Cl)cc3)cc2n1C1CCN(S(=O)(=O)C(F)(F)F)CC1 [Example 292]
- EC50 [1]: > 10000 nM
- EC50 [2]: 2890 nM

Compound: Oc1ccc(Cn2c(C3CC3)nc3ccc(C(c4ccc(Cl)cc4)c4ccc(Cl)cc4)cc32)cc1 [Example 183]
- EC50 [1]: 6300 nM
- EC50 [2]: 31.4 nM

Compound: CCOC(=O)N1CCC(n2cnc3ccc(C(c4ccc(Cl)cc4)c4nccs4)cc32)CC1 (stereo not shown) [Example 448]
- EC50 [1]: > 10000 nM
- EC50 [2]: 100 nM

Compound: O=C(O)c1ccc(C(=O)N2CCC(n3c(C4CC4)nc4ccc(C(c5ccc(Cl)cc5)c5ccc(Cl)cc5)cc43)CC2)cn1 [Example 231]
- EC50 [1]: > 10000 nM
- EC50 [2]: 709 nM

Compound: O=C(O)Cc1ccc(N2CCC(n3c(C4CC4)nc4ccc(C(c5ccc(Cl)cc5)c5ccc(Cl)cc5)cc43)CC2)cc1 [Example 157]
- EC50 [1]: 3380 nM
- EC50 [2]: 190 nM

Compound: Cc1cc(C(=O)O)sc1S(=O)(=O)N1CCC(n2c(C3CC3)nc3ccc(C(c4ccc(Cl)cc4)c4ccc(Cl)cc4)cc32)CC1 [Example 218]
- EC50 [1]: 1440 nM
- EC50 [2]: 7.2 nM

Compound: CCCc1nc2ccc(C(c3ccc(Cl)cc3)c3nccs3)cc2n1CCc1cccc(Cl)c1 (stereo not shown) [Example 410]
- EC50 [1]: > 10000 nM
- EC50 [2]: 308 nM

Compound: O=C(O)c1cccc(CN2CCC(n3c(C4CC4)nc4ccc(C(c5ccc(F)cc5)c5ccc(Cl)cc5)cc43)CC2)c1 (stereo not shown) [Example 98]
- EC50 [1]: > 10000 nM
- EC50 [2]: 16.2 nM

Compound: CCc1nc2ccc(C(c3ccc(Cl)cc3)c3ccc(Cl)cc3)cc2n1C1Cc2ccccc2C1 [Example 297]
- EC50 [1]: > 10000 nM
- EC50 [2]: 615 nM

Compound: O=S(=O)(CCN1CCNCC1)N1CCC(n2c(C3CC3)nc3ccc(C(c4ccc(Cl)cc4)c4ccc(Cl)cc4)cc32)CC1 [Example 45]
- EC50 [1]: > 42000 nM
- EC50 [2]: 593 nM

Compound: O=C(O)c1ccc(S(=O)(=O)N2CCC(n3c(C4CC4)nc4ccc(C(c5ccc(Cl)cc5)c5ccc(Cl)cc5)cc43)CC2)cc1C(F)(F)F [Example 166]
- EC50 [1]: 5020 nM
- EC50 [2]: 3.7 nM

Compound: CCOC(=O)N1CCC(n2c(C3CC3)nc3ccc(C(c4ccc(Cl)cc4)c4nccs4)cc32)CC1 (stereo not shown) [Example 421]
- EC50 [1]: > 10000 nM
- EC50 [2]: 112 nM

Compound: O=S(=O)(c1cccc(C(F)(F)F)c1)N1CCC(n2c(C3CC3)nc3ccc(C(c4ccc(Cl)cc4)c4ccc(Cl)cc4)cc32)CC1 [Example 284]
- EC50 [1]: > 10000 nM
- EC50 [2]: 5.7 nM

Compound: NC(=O)c1ccccc1S(=O)(=O)N1CCC(n2c(C3CC3)nc3ccc(C(c4ccc(Cl)cc4)c4ccc(Cl)cc4)cc32)CC1 [Example 243]
- EC50 [1]: 347 nM
- EC50 [2]: 35.9 nM

Compound: Nc1ccc(S(=O)(=O)N2CCC(n3c(C4CC4)nc4ccc(C(c5ccc(Cl)cc5)c5ccc(Cl)cc5)cc43)CC2)cc1 [Example 151]
- EC50 [1]: > 10000 nM
- EC50 [2]: 66.5 nM

Compound: OC(Cn1c(C2CC2)nc2ccc(C(c3ccc(Cl)cc3)c3ccc(Cl)cc3)cc21)c1ccccc1 (single isomer, unassigned) [Example 289]
- EC50 [1]: > 10000 nM
- EC50 [2]: 29.2 nM

Compound: O=C(O)c1cccc(CN2CCC(n3c(C4CC4)nc4ccc(C(c5ccc(Cl)cc5)c5ccc(Cl)cc5)cc43)CC2)c1O [Example 79]
- EC50 [1]: 5090 nM
- EC50 [2]: 32.6 nM

Compound: O=C(O)c1cccc(S(=O)(=O)N[C@H]2CC[C@H](n3c(C4CC4)nc4ccc(C(c5ccc(Cl)cc5)c5ccc(Cl)cc5)cc43)CC2)c1 [Example 22]
- EC50 [1]: 1520 nM
- EC50 [2]: 89 nM

Compound: CCOC(=O)N1CCC(n2c(-c3nccs3)nc3ccc(C(c4ccc(Cl)cc4)c4nccs4)cc32)CC1 (stereo not shown) [Example 419]
- EC50 [1]: > 10000 nM
- EC50 [2]: 1180 nM

Compound: O=S(=O)(c1ccc(CO)o1)N1CCC(n2c(C3CC3)nc3ccc(C(c4ccc(Cl)cc4)c4ccc(Cl)cc4)cc32)CC1 [Example 55]
- EC50 [1]: 2740 nM
- EC50 [2]: 12.3 nM

Compound: CCc1nc2ccc(C(C(=O)O)(c3ccc(Cl)cc3)c3ccc(Cl)cc3)cc2n1C1CCN(S(=O)(=O)C(F)(F)F)CC1 [Example 266]
- EC50 [1]: > 10000 nM
- EC50 [2]: 18.4 nM

Compound: NC(=O)COc1cccc(-n2c(C3CC3)nc3ccc(C(c4ccc(Cl)cc4)c4ccc(Cl)cc4)cc32)c1 [Example 172]
- EC50 [1]: > 10000 nM
- EC50 [2]: 81.2 nM

Compound: NC(=O)c1ccc(CN2CCC(n3c(C4CC4)nc4ccc(C(c5ccc(Cl)cc5)c5ccc(Cl)cc5)cc43)CC2)cc1 [Example 138]
- EC50 [1]: 3900 nM
- EC50 [2]: 13.9 nM

Compound: O=S(=O)(N1CCC(n2c(C3CC3)nc3ccc(C(c4ccc(Cl)cc4)c4nccs4)cc32)CC1)C(F)(F)F (stereo not shown) [Example 384]
- EC50 [1]: > 10000 nM
- EC50 [2]: 12 nM

Compound: CCOC(=O)N1CCC(n2c(C)nc3ccc(C(c4ccc(Cl)cc4)c4nccs4)cc32)CC1 (stereo not shown) [Example 445]
- EC50 [1]: > 10000 nM
- EC50 [2]: 947 nM

Compound: O=C(c1cn[nH]n1)N1CCC(n2c(C3CC3)nc3ccc(C(c4ccc(Cl)cc4)c4ccc(Cl)cc4)cc32)CC1 [Example 199]
- EC50 [1]: 6500 nM
- EC50 [2]: 173 nM

Compound: OC(c1ccc(Cl)cc1)(c1ccc2nc(C3CC3)n(C3CCc4ccccc4C3)c2c1)c1nccs1 (stereo not shown) [Example 341]
- EC50 [1]: > 10000 nM
- EC50 [2]: 1330 nM

Compound: Oc1cccc(-n2c(C3CC3)nc3ccc(C(c4ccc(Cl)cc4)c4ccc(Cl)cc4)cc32)c1 [Example 180]
- EC50 [1]: > 10000 nM
- EC50 [2]: 17.1 nM

Compound: Clc1ccc(C(c2ccc3ncn(-c4cccc(Cl)c4)c3c2)c2nccs2)cc1 (stereo not shown) [Example 435]
- EC50 [1]: > 10000 nM
- EC50 [2]: > 10000 nM

Compound: O=C(O)c1ccc(-c2cccc(CCn3c(C4CC4)nc4ccc(C(c5ccc(Cl)cc5)c5ccc(Cl)cc5)cc43)c2)cc1 [Example 17]
- EC50 [1]: 9400 nM
- EC50 [2]: 82.9 nM

Compound: O=C(O)c1ccc(S(=O)(=O)N2CCC(n3c(C4CC4)nc4ccc(C(CO)(c5ccc(Cl)cc5)c5ccc(Cl)cc5)cc43)CC2)cc1 [Example 228]
- EC50 [1]: > 10000 nM
- EC50 [2]: 8300 nM

Compound: Clc1ccc(C(c2ccc(Cl)cc2)c2ccc3nc(C4CC4)n(CCOc4cccc(Br)c4)c3c2)cc1 [Example 7]
- EC50 [1]: 7600 nM
- EC50 [2]: 26.7 nM

Compound: NC(=O)c1ccc(S(=O)(=O)N2CCC(n3c(C4CC4)nc4ccc(C(CO)(c5ccc(Cl)cc5)c5ccc(Cl)cc5)cc43)CC2)cc1Cl [Example 212]
- EC50 [1]: > 10000 nM
- EC50 [2]: 3740 nM

Compound: O=C(CCO)N1CCC(n2c(C3CC3)nc3ccc(C(c4ccc(Cl)cc4)c4ccc(Cl)cc4)cc32)CC1 [Example 234]
- EC50 [1]: 9530 nM
- EC50 [2]: 16.1 nM

Compound: O=C(O)c1ccc(O)c(CN2CCC(n3c(C4CC4)nc4ccc(C(c5ccc(Cl)cc5)c5ccc(Cl)cc5)cc43)CC2)c1 [Example 82]
- EC50 [1]: > 42000 nM
- EC50 [2]: 995 nM

Compound: CCc1nc2ccc(C(c3ccc(Cl)cc3)c3ccc(Cl)cc3)cc2n1CCc1ccc(C(F)(F)F)cc1 [Example 314]
- EC50 [1]: 2790 nM
- EC50 [2]: 20.1 nM
